Reference: ChEMBL document CHEMBL1201862, “PubChem BioAssay data set” (2004)
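Dose response: 5 concentrations. Exposure: 48 h. Format: 96-well plates. Endpoint: linear interpolation; highest concentration if not reached. GI50: concentration for 50% inhibition of growth.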 Calls of active or inactive are those of the source. No stated cut-off is given here; in the data, active = GI50 up to about 1.1 µM and inactive = higher.

How the values were obtained:
Experiment in all cases: growth of human tumour cells (NCI), 48 h
786-0 = tested on: 786-0
A498 = tested on: A498
ACHN = tested on: ACHN
CCRF-CEM = tested on: CCRF-CEM
COLO 205 = tested on: COLO 205
EKVX = tested on: EKVX
HOP-62 = tested on: HOP-62
HOP-92 = tested on: HOP-92
K562 = tested on: K562
LOX IMVI = tested on: LOX IMVI
MDA-MB-231 = tested on: MDA-MB-231
MOLT-4 = tested on: MOLT-4
Malme-3M = tested on: Malme-3M
NCI-H23 = tested on: NCI-H23
NCI-H460 = tested on: NCI-H460
OVCAR-3 = tested on: OVCAR-3
OVCAR-4 = tested on: OVCAR-4
SR = tested on: SR
T47D = tested on: T47D
UACC-257 = tested on: UACC-257

| SMILES | GI50 (786-0) | GI50 (A498) | GI50 (ACHN) | GI50 (CCRF-CEM) | GI50 (COLO 205) | GI50 (EKVX) | GI50 (HOP-62) | GI50 (HOP-92) | GI50 (K562) | GI50 (LOX IMVI) | GI50 (MDA-MB-231) | GI50 (MOLT-4) | GI50 (Malme-3M) | GI50 (NCI-H23) | GI50 (NCI-H460) | GI50 (OVCAR-3) | GI50 (OVCAR-4) | GI50 (SR) | GI50 (T47D) | GI50 (UACC-257) |
| --- | --- | --- | --- | --- | --- | --- | --- | --- | --- | --- | --- | --- | --- | --- | --- | --- | --- | --- | --- | --- |
| NC1CCCCC1NCCNC1CCCCC1N (stereo not drawn) | > 100 µM (inactive) | > 100 µM (inactive) | > 100 µM (inactive) | 36.4 µM (inactive) | 15.9 µM (inactive) | > 100 µM (inactive) | 53.7 µM (inactive) | 41.5 µM (inactive) | 49.2 µM (inactive) | 86.5 µM (inactive) | > 100 µM (inactive) | 36.1 µM (inactive) | > 100 µM (inactive) | 29.9 µM (inactive) | > 100 µM (inactive) | > 100 µM (inactive) | 47.2 µM (inactive) | > 100 µM (inactive) | > 100 µM (inactive) | > 100 µM (inactive) |
| COc1cc2c(c(OC)c1OC)-c1c(cc3c(c1OC)OCO3)CC(C)C(C)(O)C2OC(=O)c1ccccc1 (stereo not drawn) | 55.1 µM (inactive) | 39.8 µM (inactive) | 32 µM (inactive) | 25.9 µM (inactive) | 22.5 µM (inactive) | 36 µM (inactive) | > 100 µM (inactive) | 12.2 µM (inactive) | 46.3 µM (inactive) | 31.2 µM (inactive) | 20.2 µM (inactive) | 5.58 µM (inactive) | 45.5 µM (inactive) | 45.4 µM (inactive) | 33.3 µM (inactive) | 29.9 µM (inactive) | 35.3 µM (inactive) | 17.7 µM (inactive) | 42.3 µM (inactive) | 44.9 µM (inactive) |
| CC1CN=C(N(C(=O)Nc2ccc(Cl)cc2)c2cccc(Cl)c2)S1 (stereo not drawn) | 23.9 µM (inactive) | 16.9 µM (inactive) | 10.8 µM (inactive) | 17.8 µM (inactive) | 18.5 µM (inactive) | 31.2 µM (inactive) | > 100 µM (inactive) | 26.3 µM (inactive) | 7.06 µM (inactive) | 21.6 µM (inactive) | 39.3 µM (inactive) | > 10 µM (inactive) | 59 µM (inactive) | 35.1 µM (inactive) | 27.1 µM (inactive) | 40.6 µM (inactive) | 46.3 µM (inactive) | 29.3 µM (inactive) | 13 µM (inactive) | 28.2 µM (inactive) |
| CN1CC2CN(Cc3ccccc3)CCN2c2cccnc21 (stereo not drawn) | 52.1 µM (inactive) | 95.3 µM (inactive) | 45.2 µM (inactive) | 32.8 µM (inactive) | 36.6 µM (inactive) | 53 µM (inactive) | > 100 µM (inactive) | 47.4 µM (inactive) | 29.2 µM (inactive) | 20.9 µM (inactive) | 97.1 µM (inactive) | 35.6 µM (inactive) | 47 µM (inactive) | 39 µM (inactive) | 39.1 µM (inactive) | 41.1 µM (inactive) | 82.6 µM (inactive) | 25.8 µM (inactive) | 53.7 µM (inactive) | 40.8 µM (inactive) |
| CCc1nc(N)nc(N)c1-c1ccc(Cl)c([N+](=O)[O-])c1 | 0.0869 µM (active) | 2.49 µM (inactive) | 0.1 µM (active) | 0.0557 µM (active) | 6.71 µM (inactive) | 3.38 µM (inactive) | 0.596 µM (active) | 5.16 µM (inactive) | 0.0156 µM (active) | 0.0524 µM (active) | 24.4 µM (inactive) | 0.258 µM (active) | 18.4 µM (inactive) | 0.0887 µM (active) | < 0.028 µM (active) | 8.05 µM (inactive) | 22.6 µM (inactive) | 0.0439 µM (active) | 10.5 µM (inactive) | 6.14 µM (inactive) |
| CCOC(=O)/C=C(/OCC)[C@@H]1C(C(=O)c2ccc(Cl)cc2)[C@H]1/C(=C\C(=O)OCC)OCC (stereo partly drawn) | > 100 µM (inactive) | > 100 µM (inactive) | > 100 µM (inactive) | 57.4 µM (inactive) | 95.3 µM (inactive) | > 100 µM (inactive) | > 100 µM (inactive) | > 34.7 µM (inactive) | 4.55 µM (inactive) | > 100 µM (inactive) | > 44.4 µM (inactive) | > 20.5 µM (inactive) | > 100 µM (inactive) | > 76.9 µM (inactive) | > 100 µM (inactive) | > 100 µM (inactive) | > 100 µM (inactive) | 8.73 µM (inactive) | > 72.9 µM (inactive) | > 100 µM (inactive) |
| CC(C)=CCN(N=O)c1ncnc2[nH]cnc12 | > 100 µM (inactive) | 95.1 µM (inactive) | > 100 µM (inactive) | > 100 µM (inactive) | > 100 µM (inactive) | > 100 µM (inactive) | > 100 µM (inactive) | > 100 µM (inactive) | 73.6 µM (inactive) | 92.5 µM (inactive) | > 100 µM (inactive) | > 100 µM (inactive) | > 100 µM (inactive) | > 100 µM (inactive) | > 100 µM (inactive) | > 100 µM (inactive) | 89.5 µM (inactive) | 75.3 µM (inactive) | 94.6 µM (inactive) | > 100 µM (inactive) |
| COc1ccc2nc3cc(Cl)ccc3c(NCCCCCC(=O)NC(COc3cnc4c(ccc5cccnc54)c3)COc3cnc4c(ccc5cccnc54)c3)c2c1 | 11 µM (inactive) | 23.2 µM (inactive) | 36.6 µM (inactive) | 1.99 µM (inactive) | 2.79 µM (inactive) | 22.8 µM (inactive) | 15.7 µM (inactive) | > 100 µM (inactive) | 3.43 µM (inactive) | 3.72 µM (inactive) | 6.34 µM (inactive) | 1.65 µM (inactive) | 34.9 µM (inactive) | 28.2 µM (inactive) | 5.47 µM (inactive) | 4.02 µM (inactive) | 7.28 µM (inactive) | 2.76 µM (inactive) | 7.29 µM (inactive) | 8.93 µM (inactive) |
| Cc1ccc2c(O)cc(-c3ccc(C)s3)nc2n1 | 0.443 µM (active) | 0.762 µM (active) | 0.731 µM (active) | 0.276 µM (active) | 0.459 µM (active) | 2.95 µM (inactive) | 1.07 µM (active) | 5.21 µM (inactive) | 0.423 µM (active) | 0.472 µM (active) | 1.73 µM (inactive) | 0.624 µM (active) | 0.94 µM (active) | 0.277 µM (active) | 0.456 µM (active) | 0.34 µM (active) | 12.7 µM (inactive) | 0.0893 µM (active) | 0.506 µM (active) | 16.6 µM (inactive) |
| CC(C)Cc1ccc(C(C)/C=C2\CCC(CN3CCCCC3)C2=O)cc1 (stereo not drawn) | 1.85 µM (inactive) | 14.3 µM (inactive) | 6.98 µM (inactive) | 1.5 µM (inactive) | 5.81 µM (inactive) | 13.6 µM (inactive) | 8.69 µM (inactive) | 10.1 µM (inactive) | 2.46 µM (inactive) | 2.01 µM (inactive) | 4.89 µM (inactive) | 1.63 µM (inactive) | 16.6 µM (inactive) | 7.29 µM (inactive) | 26.7 µM (inactive) | 4.03 µM (inactive) | 3.78 µM (inactive) | 1.65 µM (inactive) | 5.09 µM (inactive) | 12.7 µM (inactive) |
| CC(NC1=NCCO1)c1ccccc1Cl (stereo not drawn) | > 100 µM (inactive) | > 100 µM (inactive) | > 100 µM (inactive) | > 100 µM (inactive) | > 100 µM (inactive) | > 100 µM (inactive) | > 100 µM (inactive) | < 0.01 µM (active) | > 100 µM (inactive) | > 100 µM (inactive) | > 100 µM (inactive) | 91.8 µM (inactive) | > 100 µM (inactive) | > 100 µM (inactive) | > 100 µM (inactive) | > 100 µM (inactive) | > 100 µM (inactive) | > 100 µM (inactive) | > 100 µM (inactive) | > 100 µM (inactive) |
| C=C(C(=O)O[C@H]1C/C(C)=C/CC/C(CO)=C/[C@H]2C(=O)OC(=C)[C@H]12)C(O)CO (stereo partly drawn) | 5.98 µM (inactive) | 18.5 µM (inactive) | 12.3 µM (inactive) | 1.67 µM (inactive) | 3.37 µM (inactive) | 17.3 µM (inactive) | 24.5 µM (inactive) | 8.75 µM (inactive) | 4.08 µM (inactive) | 16.3 µM (inactive) | 17.9 µM (inactive) | 5.37 µM (inactive) | 5.16 µM (inactive) | 16.3 µM (inactive) | 17.2 µM (inactive) | 6.76 µM (inactive) | 20.5 µM (inactive) | 2.5 µM (inactive) | 3.75 µM (inactive) | 11.5 µM (inactive) |
| O=C1NCCN1/N=C/c1c(Cl)n(-c2ccccc2)c2ccccc12 | 26.1 µM (inactive) | 17.5 µM (inactive) | 23.9 µM (inactive) | 29 µM (inactive) | 14.3 µM (inactive) | 25.5 µM (inactive) | 94.4 µM (inactive) | 23.6 µM (inactive) | 24.5 µM (inactive) | 13.5 µM (inactive) | 13.6 µM (inactive) | 36.9 µM (inactive) | 16.6 µM (inactive) | 18.5 µM (inactive) |  | 66.4 µM (inactive) | 48.1 µM (inactive) | 28 µM (inactive) | 15.2 µM (inactive) | 22.4 µM (inactive) |
| CC(=O)C1(c2ccccc2)CCN(Cn2sc3nc(C)cc(C)c3c2=O)CC1 | 16.9 µM (inactive) | 78.2 µM (inactive) | 17.8 µM (inactive) | 10.5 µM (inactive) | 17.6 µM (inactive) | 23.3 µM (inactive) | 34.8 µM (inactive) | 59.4 µM (inactive) | 26.7 µM (inactive) | 23.8 µM (inactive) | 33 µM (inactive) | 27.7 µM (inactive) | 20.3 µM (inactive) | 19.1 µM (inactive) | 17.6 µM (inactive) | 37.5 µM (inactive) | 21.9 µM (inactive) | 32.1 µM (inactive) | 55.6 µM (inactive) |  |
